Test results: ChEMBL document CHEMBL1129774, “Antitumor agents 171. Cytotoxicities of lobatosides B, C, D, and E, cyclic bisdesmosides isolated from Actinostemma lobatum maxim” (1996)
Several values for one entry are separate records, joined by “and”; a condition that tells them apart may be missing. Equal entries are not always repeated.

Tests used:
Type in all cases: functional
[1] = system: SK-MEL-28; assay: In vitro cytotoxicity against human melanoma SK-MEL-28 cancer cell line.
[2] = system: HCC 2998; assay: In vitro cytotoxicity against human colon cancer HCC2998 cell line.
[3] = system: MDA-MB-435; assay: In vitro cytotoxicity against human […] MDA-MB-435 cell line
[4] = system: HL-60; assay: In vitro cytotoxicity against human leukemia HL-60(TB) cancer cell line
[5] = system: SF-295; assay: In vitro cytotoxicity against human CNS cancer SF-295 cell line.
[6] = system: A549; assay: In vitro cytotoxicity against human Non-small cell lung cancer A549/ATCC cell line.
[7] = system: UO-31; assay: In vitro cytotoxicity against human renal cancer UO-31 cell line
[8] = system: SK-MEL-5; assay: In vitro cytotoxicity against human melanoma SK-MEL-5 cancer cell line.
[9] = system: PC-3; assay: In vitro cytotoxicity against human prostate cancer PC-3 cell line
[10] = system: OVCAR-5; assay: In vitro cytotoxicity against human ovarian cancer OVCAR-5 cell line

SMILES	GI50 [1] [µM]	GI50 [2]	GI50 ([2]; Homo sapiens, HCC 2998) [µM]	GI50 [3] [µM]	GI50 [4] [µM]	GI50 [5] [µM]	GI50 [6] [µM]	GI50 [7] [µM]	GI50 [8] [µM]	GI50 [9] [µM]	GI50 [10] [µM]
C[C@@H]1O[C@H]2OC3[C@@H](OC[C@H](O)[C@@H]3O)OC(=O)[C@@]34CC[C@@H]5C(=CC[C@H]6[C@@]5(C)CC[C@H]5C(C)(C)[C@@H](O[C@@H]7O[C@H](CO)[C@@H](O)[C@H](O)[C@H]7O[C@@H]7O[C@H](CO)[C@@H](O)[C@H](O)[C@H]7OC(=O)CC(C)(O)CC(=O)O[C@@H]1[C@@H](O)[C@H]2O)[C@@H](O)C[C@]65C)[C@@H]3CC(C)(C)CC4 (stereo partly specified)	1.51	1.15 µM	1.32	1.58	1.41	1.78	1.32	1.23	1.2	1.38	1.62
C[C@@H]1O[C@H]2O[C@H]3[C@@H](OC[C@H](O)[C@@H]3O)OC(=O)[C@@]34CCC5C(=CC[C@@H]6[C@@]7(C)C[C@H](O)[C@H](O[C@@H]8O[C@H](CO)[C@@H](O)[C@H](O)[C@H]8O[C@@H]8O[C@H](CO)[C@H](O)[C@H](O)[C@H]8OC(=O)CC(C)(O)CC(=O)O[C@@H]1[C@@H](O[C@@H]1O[C@H](CO)[C@@H](O)[C@H](O)[C@H]1O)[C@H]2O)C(C)(C)[C@@H]7CC[C@@]56C)[C@@H]3CC(C)(C)CC4 (stereo partly specified)	1.29	1.41 µM and 0.36 µM	–	1.45	1.45	1.51	0.14	1.62	0.14	1.95	2
C[C@@H]1O[C@H]2O[C@H]3[C@@H](OC[C@H](O)[C@@H]3O)OC(=O)[C@@]34CCC5C(=CC[C@@H]6[C@@]7(C)C[C@H](O)[C@H](O[C@@H]8O[C@H](CO)[C@@H](O)[C@H](O)[C@H]8O[C@H]8OC[C@H](OC(=O)CC(C)(O)CC(=O)O[C@@H]1[C@@H](O[C@@H]1O[C@H](CO)[C@@H](O)[C@H](O)[C@H]1O)[C@H]2O)C(O)[C@H]8O)C(C)(C)[C@@H]7CC[C@@]56C)[C@@H]3CC(C)(C)CC4 (stereo partly specified)	1.94	2.45 µM and 9.33 µM	–	2.45	1.82	4.07	3.89	4.47	11.4	7.94	8.91
C[C@@H]1O[C@H]2O[C@H]3[C@@H](OC[C@H](O)[C@@H]3O)OC(=O)[C@@]34CC[C@@H]5C(=CC[C@H]6[C@@]5(C)CC[C@H]5C(C)(C)[C@@H](O[C@@H]7O[C@H](CO)[C@@H](O)[C@H](O)[C@H]7O[C@H]7OC[C@H](OC(=O)CC(C)(O)CC(=O)O[C@@H]1[C@@H](O)[C@H]2O)[C@H](O)[C@H]7O)[C@@H](O)C[C@]65C)[C@@H]3CC(C)(C)CC4 (stereo partly specified)	1.94	2.4 µM and 8.91 µM	–	5.89	1.78	3.39	2.24	6.03	4.17	2.19	1.32
